The test concerns the target rhCETP (Homo sapiens (Human), UniProt P11597). Description: CETP in vitro assay (CETP Activity Kit, fluorescence, rhCETP). The format is biochemical. Conditions: CETP inhibition; Table 1 does not name the assay; read-out: IC50 (nM), Inhibitory Activity of Compounds. On the procedure:
CETP Activity Kit (#RB-RPAK) was purchased from Roar Biochemical, Inc. (New York, N.Y., USA). To each well of a 96-well NBS half-area plate (costar #3686), […] of the donor solution, 1 μL of the acceptor solution and 5 μL compound solution diluted in 100% DMSO were added in a 38 μL of buffer containing 10 mM Tris, 150 mM NaCl and 2 mM EDTA, pH 7.4. Then, the plate was sealed with Themowell™ Sealers (costar #6524) and followed by a mixing on a plate shaker by MICROPLATE MIXER MPX-96 (IWAKI) at power 3 for 10 sec at room temperature. After 10-min incubation at 37° C., the reaction was started by adding 5 μL of rhCETP solution (Cardiovascular Target, New York, N.Y., USA) and mixed on the plate shaker for 10 sec, then the fluorescence intensity at 0 min was measured by a ARVO SX (Perkin Elmerr, USA) at excitation wavelength of 465 nm and emission wavelength of 535 nm. After 120 min-incubation at 37° C., fluorescence intensity was measured again. The inhibition of rhCETP activity by a compound was calculated by the following calculation. Inhibition %={1−(F120−F0)/(f120−f0)}×100 F: measured fluorescence intensity with compound at 0 or 120 min. f: measured fluorescence intensity of without compound at 0 or 120 min.
The IC50 values are determined from the dose-effect curve by Origin software. IC50 values, especially from about 0.1 nM to about 50 μM, are determined for the compounds of the present invention or a pharmaceutically acceptable salt thereof.
Chain of rhCETP (P11597 18-493): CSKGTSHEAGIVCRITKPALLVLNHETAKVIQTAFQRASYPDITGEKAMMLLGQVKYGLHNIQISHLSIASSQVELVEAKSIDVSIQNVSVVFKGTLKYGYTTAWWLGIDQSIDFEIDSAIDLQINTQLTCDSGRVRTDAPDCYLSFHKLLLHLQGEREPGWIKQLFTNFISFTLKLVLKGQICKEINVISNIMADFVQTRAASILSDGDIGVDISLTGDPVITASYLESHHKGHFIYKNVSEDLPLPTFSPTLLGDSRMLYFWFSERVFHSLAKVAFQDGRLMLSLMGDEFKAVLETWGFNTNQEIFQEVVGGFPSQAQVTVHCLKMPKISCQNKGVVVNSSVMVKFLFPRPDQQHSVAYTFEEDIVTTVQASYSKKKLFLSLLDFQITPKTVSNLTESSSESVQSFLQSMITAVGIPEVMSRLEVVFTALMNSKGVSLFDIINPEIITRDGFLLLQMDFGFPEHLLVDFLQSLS
As to `CC[C@@H]1C[C@H](N(Cc2cc(C(F)(F)F)cc(C(F)(F)F)c2)c2ncc(-c3cnn(C)c3)cn2)CN1C(=O)N1CCCCC1` [Example 16-2, ((2R,4S)-4-{(3,5-Bis-trifluoromethyl-benzyl)-[5-(1-methyl-1H-pyrazol-4-yl)-pyrimidin-2-yl]-amino}-2-ethyl-pyrrolidin-1-yl)-piperidin-1-yl-methanone], the IC50 turned out to be 25 nM. Then `CC[C@@H]1C[C@H](N(Cc2cc(C(F)(F)F)cc(C(F)(F)F)c2)c2ncc(N3CC[C@H](O)C3)cn2)CN1C(=O)OC(C)C` [Example 11, (2R,4S)-4-{(3,5-Bis-trifluoromethyl-benzyl)-[5-((S)-3-hydroxy-pyrrolidin-1-yl)-pyrimidin-2-yl]-amino}-2-ethyl-pyrrolidine-1-carboxylic acid isopropyl ester], with 72 nM. As to `CCC(CC)OC(=O)N1C[C@@H](N(Cc2cc(C(F)(F)F)cc(C(F)(F)F)c2)c2ncc(-c3cnn(C)c3)cn2)C[C@H]1CC` [Example 9-1, (2R,4S)-4-{(3,5-Bis-trifluoromethyl-benzyl)-[5-(1-methyl-1H-pyrazol-4-yl)-pyrimidin-2-yl]-amino}-2-ethyl-pyrrolidine-1-carboxylic acid 1-ethyl-propyl ester], the IC50 worked out at 41 nM. Consider `CC[C@@H]1C[C@H](N(Cc2cc(C(F)(F)F)cc(C(F)(F)F)c2)c2ncc(-c3cn[nH]c3)cn2)CN1C(=O)OC(C)C` [Example 14, (2R,4S)-4-{(3,5-Bis-trifluoromethyl-benzyl)-[5-(1H-pyrazol-4-yl)-pyrimidin-2-yl]-amino}-2-ethyl-pyrrolidine-1-carboxylic acid isopropyl ester], for which the IC50 was 34 nM. Then `CC[C@@H]1C[C@H](N(Cc2cc(C(F)(F)F)cc(C(F)(F)F)c2)c2ncc(-c3cnn(C)c3)cn2)CN1C(=O)N1CCOCC1` [Example 17, ((2R,4S)-4-{(3,5-Bis-trifluoromethyl-benzyl)-[5-(1-methyl-1H-pyrazol-4-yl)-pyrimidin-2-yl]-amino}-2-ethyl-pyrrolidin-1-yl)-morpholin-4-yl-methanone], with 32 nM; and `CC[C@@H]1C[C@H](N(Cc2cc(C(F)(F)F)cc(C(F)(F)F)c2)c2ncc(-c3cnn(C)c3)cn2)CN1C(=O)O[C@@H](C)CC` [Example 9-5, (2R,4S)-4-{(3,5-Bis-trifluoromethyl-benzyl)-[5-(1-methyl-1H-pyrazol-4-yl)-pyrimidin-2-yl]-amino}-2-ethyl-pyrrolidine-1-carboxylic acid (S)-sec-butyl ester], with 54 nM; and `CC[C@@H]1C[C@H](N(Cc2cc(C(F)(F)F)cc(C(F)(F)F)c2)c2ncc(-c3cnn(C)c3)cn2)CN1C(=O)OCC(C)(C)C` [Example 6-2, (2R,4S)-4-{(3,5-Bis-trifluoromethyl-benzyl)-[5-(1-methyl-1H-pyrazol-4-yl)-pyrimidin-2-yl]-amino}-2-ethyl-pyrrolidine-1-carboxylic acid 2,2-dimethyl-propyl ester], with 47 nM. The result for `CC[C@@H]1C[C@H](N(Cc2cc(C(F)(F)F)cc(C(F)(F)F)c2)c2ncc(-c3cnn(C)c3)cn2)CN1C(=O)C1CCCCC1` [Example 5-3, ((2R,4S)-4-{(3,5-Bis-trifluoromethyl-benzyl)-[5-(1-methyl-1H-pyrazol-4-yl)-pyrimidin-2-yl]-amino}-2-ethyl-pyrrolidin-1-yl)-cyclohexyl-methanone] reads 92 nM.

Regarding `CC[C@@H]1C[C@H](N(Cc2cc(C(F)(F)F)cc(C(F)(F)F)c2)c2ncc(-c3cnn(C)c3)cn2)CN1C(=O)OCC1(CC)COC1` [Example 9-6, (2R,4S)-4-{(3,5-Bis-trifluoromethyl-benzyl)-[5-(1-methyl-1H-pyrazol-4-yl)-pyrimidin-2-yl]-amino}-2-ethyl-pyrrolidine-1-carboxylic acid 3-ethyl-oxetan-3-ylmethyl ester], the IC50 amounted to 70 nM. Then `CC[C@@H]1C[C@H](N(Cc2cc(C(F)(F)F)cc(C(F)(F)F)c2)c2ncc(-c3cnn(C)c3)cn2)CN1C(=O)N(C)C` [Example 18, (2R,4S)-4-{(3,5-Bis-trifluoromethyl-benzyl)-[5-(1-methyl-1H-pyrazol-4-yl)-pyrimidin-2-yl]-amino}-2-ethyl-pyrrolidine-1-carboxylic acid dimethylamide], with 63 nM; and `CC[C@@H]1C[C@H](N(Cc2cc(C(F)(F)F)cc(C(F)(F)F)c2)c2ncc(-c3cnn(C)c3)cn2)CN1C(=O)OC1CCCC1` [Example 9-3, (2R,4S)-4-{(3,5-Bis-trifluoromethyl-benzyl)-[5-(1-methyl-1H-pyrazol-4-yl)-pyrimidin-2-yl]-amino}-2-ethyl-pyrrolidine-1-carboxylic acid cyclopentyl ester], with 70 nM. The result for `CC[C@@H]1C[C@H](N(Cc2cc(C(F)(F)F)cc(C(F)(F)F)c2)c2ncc(-c3cnn(C)c3)cn2)CN1c1nc(N2CCC(O)CC2)ncc1Cl` [Example 23-10] reads 30 nM; that for `CC[C@@H]1C[C@H](N(Cc2cc(C(F)(F)F)cc(C(F)(F)F)c2)c2ncc(N3CC[C@H](O)C3)cn2)CN1c1nc(N2CCC(O)CC2)ncc1Cl` [Example 23-6], 110 nM; that for `CC[C@@H]1C[C@H](N(Cc2cc(C(F)(F)F)cc(C(F)(F)F)c2)c2ncc(-c3cnn(C)c3)cn2)CN1C(=O)N1CCCC1` [Example 16, ((2R,4S)-4-{(3,5-Bis-trifluoromethyl-benzyl)-[5-(1-methyl-1H-pyrazol-4-yl)-pyrimidin-2-yl]-amino}-2-ethyl-pyrrolidin-1-yl)-pyrrolidin-1-yl-methanone], 39 nM. Turning to `CC[C@@H]1C[C@H](N(Cc2cc(C(F)(F)F)cc(C(F)(F)F)c2)c2ncc(-c3cnn(C)c3)cn2)CN1C(=O)O[C@H](C)CC` [Example 9-4, (2R,4S)-4-{(3,5-Bis-trifluoromethyl-benzyl)-[5-(1-methyl-1H-pyrazol-4-yl)-pyrimidin-2-yl]-amino}-2-ethyl-pyrrolidine-1-carboxylic acid (R)-sec-butyl ester], the 50% inhibitory concentration (IC50) was determined as 21 nM. Then `CC[C@@H]1C[C@H](N(Cc2cc(C(F)(F)F)cc(C(F)(F)F)c2)c2ncc(-c3cnn(C)c3)cn2)CN1C(=O)OC1CCOCC1` [Example 7-4, (2R,4S)-4-{(3,5-Bis-trifluoromethyl-benzyl)-[5-(1-methyl-1H-pyrazol-4-yl)-pyrimidin-2-yl]-amino}-2-ethyl-pyrrolidine-1-carboxylic acid tetrahydro-pyran-4-yl ester], with 60 nM; and `CC[C@@H]1C[C@H](N(Cc2cc(C(F)(F)F)cc(C(F)(F)F)c2)c2ncc(-c3cnn(C)c3)cn2)CN1C(=O)OCC(C)C` [Example 6-1, (2R,4S)-4-{(3,5-Bis-trifluoromethyl-benzyl)-[5-(1-methyl-1H-pyrazol-4-yl)-pyrimidin-2-yl]-amino}-2-ethyl-pyrrolidine-1-carboxylic acid isobutyl ester], with 69 nM. The result for `CC[C@@H]1C[C@H](N(Cc2cc(C(F)(F)F)cc(C(F)(F)F)c2)c2ncc(-c3cnn(C)c3)cn2)CN1C(=O)OCC(F)(F)F` [Example 9-2, (2R,4S)-4-{(3,5-Bis-trifluoromethyl-benzyl)-[5-(1-methyl-1H-pyrazol-4-yl)-pyrimidin-2-yl]-amino}-2-ethyl-pyrrolidine-1-carboxylic acid 2,2,2-trifluoro-ethyl ester] reads 59 nM; that for `CC[C@@H]1C[C@H](N(Cc2cc(C(F)(F)F)cc(C(F)(F)F)c2)c2ncc(-c3cnn(C)c3)cn2)CN1C(=O)OCC1CCOCC1` [Example 7-6, (2R,4S)-4-{(3,5-Bis-trifluoromethyl-benzyl)-[5-(1-methyl-1H-pyrazol-4-yl)-pyrimidin-2-yl]-amino}-2-ethyl-pyrrolidine-1-carboxylic acid tetrahydro-pyran-4-ylmethyl ester], 46 nM.

As a reminder, the IC50 is the concentration that inhibits the measured activity by half.

Values taken from patent US8759365B2, “Organic compounds” (Novartis AG, priority 2007, dated 2014).
